The assay deals with EGFR (UniProt P00533).
Sequence of EGFR (P00533 whole entry, looked up): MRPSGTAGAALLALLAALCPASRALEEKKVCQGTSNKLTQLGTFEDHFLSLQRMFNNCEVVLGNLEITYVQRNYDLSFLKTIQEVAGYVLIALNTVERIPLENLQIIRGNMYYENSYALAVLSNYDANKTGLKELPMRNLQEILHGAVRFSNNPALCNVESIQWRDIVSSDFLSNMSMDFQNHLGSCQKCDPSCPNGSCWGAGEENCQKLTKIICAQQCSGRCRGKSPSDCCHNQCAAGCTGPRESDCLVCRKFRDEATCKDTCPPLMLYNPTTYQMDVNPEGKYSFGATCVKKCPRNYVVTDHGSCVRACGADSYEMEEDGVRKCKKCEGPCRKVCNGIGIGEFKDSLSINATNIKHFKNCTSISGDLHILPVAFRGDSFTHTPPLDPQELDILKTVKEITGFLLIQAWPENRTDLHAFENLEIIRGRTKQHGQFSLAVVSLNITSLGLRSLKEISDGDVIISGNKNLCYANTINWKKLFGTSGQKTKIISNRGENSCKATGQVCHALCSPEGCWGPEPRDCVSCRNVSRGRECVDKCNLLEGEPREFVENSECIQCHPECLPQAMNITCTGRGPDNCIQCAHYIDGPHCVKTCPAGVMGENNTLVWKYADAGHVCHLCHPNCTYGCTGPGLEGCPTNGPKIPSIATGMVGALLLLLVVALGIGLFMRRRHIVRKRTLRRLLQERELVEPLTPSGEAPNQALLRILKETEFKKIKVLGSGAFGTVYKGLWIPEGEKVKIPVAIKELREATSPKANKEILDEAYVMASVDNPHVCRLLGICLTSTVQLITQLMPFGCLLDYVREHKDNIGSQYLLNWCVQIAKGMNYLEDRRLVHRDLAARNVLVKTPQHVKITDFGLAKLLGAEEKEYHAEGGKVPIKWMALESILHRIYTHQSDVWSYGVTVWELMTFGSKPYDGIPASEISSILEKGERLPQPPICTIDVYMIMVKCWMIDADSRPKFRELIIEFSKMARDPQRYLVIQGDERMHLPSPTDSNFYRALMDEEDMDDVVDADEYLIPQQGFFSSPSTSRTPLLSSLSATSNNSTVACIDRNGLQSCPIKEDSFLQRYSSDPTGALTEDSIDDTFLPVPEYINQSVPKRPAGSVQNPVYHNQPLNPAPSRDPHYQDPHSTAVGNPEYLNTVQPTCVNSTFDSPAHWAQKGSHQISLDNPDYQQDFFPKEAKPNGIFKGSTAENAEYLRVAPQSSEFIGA

`Cc1cccc(Nc2ncnc3cc(NCCCCN(C)C)ncc23)c1` registered an IC50 of 5.5 nM. The value for `Brc1cccc(Nc2ncnc3cc(NCCCCN4CCOCC4)ncc23)c1` was 5.5 nM; that for `CN(C)CCCNc1cc2ncnc(Nc3cccc(Br)c3)c2cn1` was 8.9 nM. The value for `Fc1ccc2c(Nc3cccc(Br)c3)ncnc2n1` was 692 nM.

The compound `OCN(CO)c1cc2ncnc(Nc3cccc(Br)c3)c2cn1` came in with an IC50 of 14.1 nM. The value for `CN1CCN(CCCNc2cc3ncnc(Nc4cccc(Br)c4)c3cn2)CC1` was 5 nM; that for `O=C(O)CCCNc1cc2ncnc(Nc3cccc(Br)c3)c2cn1` was 0.28 nM; that for `OCCNc1cc2ncnc(Nc3cccc(Br)c3)c2cn1` was 0.25 nM. As for `OCCN(CCO)CCNc1cc2ncnc(Nc3cccc(Br)c3)c2cn1`, the figure is 9.3 nM. In the case of `Brc1cccc(Nc2ncnc3cnc(NCCc4c[nH]cn4)nc23)c1`, the IC50 was determined as 0.25 nM. As for `Brc1cccc(Nc2ncnc3cc(NCCCN4CCOCC4)ncc23)c1`, the figure is 1.9 nM; as for `OCCN(CCO)c1cc2ncnc(Nc3cccc(Br)c3)c2cn1`, 12 nM; as for `Cc1cccc(Nc2ncnc3cc(NCCCN4CCN(C)CC4)ncc23)c1`, 5.6 nM. The value for `CN(CC(O)CO)c1cc2ncnc(Nc3cccc(Br)c3)c2cn1` (stereo unspecified) was 3.2 nM; that for `CN(CCO)c1cc2ncnc(Nc3cccc(Br)c3)c2cn1` was 2.6 nM.

Turning to `CN(C)CCNc1cc2ncnc(Nc3cccc(Br)c3)c2cn1`, the IC50 was determined as 45.7 nM.

Compound `CC(=O)Nc1cc2ncnc(Nc3cccc(Br)c3)c2cn1` displayed a half-inhibitory concentration (IC50) of 29.5 nM.

For `CNc1ccc2ncnc(Nc3cccc(Br)c3)c2n1`, the IC50 turned out to be 3.2 nM. As for `O=C(O)CNc1cc2ncnc(Nc3cccc(Br)c3)c2cn1`, the figure is 1.5 nM; as for `Brc1cccc(Nc2ncnc3cc(NCCCn4ccnc4)ncc23)c1`, 0.512 nM. On to `COc1cccc(Nc2ncnc3cc(N)ncc23)c1`, for which the IC50 stood at 132 nM. As for `Brc1cccc(Nc2ncnc3cc(NCCc4c[nH]cn4)ncc23)c1`, the figure is 0.912 nM; as for `COc1cc2ncnc(Nc3cccc(Br)c3)c2cn1`, 39.8 nM; as for `CN(C)CCCCNc1cc2ncnc(Nc3cccc(Br)c3)c2cn1`, 7.4 nM. As for `OCCN(CCO)CCCNc1cc2ncnc(Nc3cccc(Br)c3)c2cn1`, the figure is 1.2 nM; as for `CN(C)CCN(C)c1cc2ncnc(Nc3cccc(Br)c3)c2cn1`, 40 nM. The value for `Brc1cccc(Nc2ncnc3cc(NCCN4CCOCC4)ncc23)c1` was 3.2 nM. `Brc1cccc(Nc2ncnc3cnc(NCCN4CCOCC4)nc23)c1` had an IC50 of 0.813 nM. For the compound `CN(CC(=O)O)c1cc2ncnc(Nc3cccc(Br)c3)c2cn1`, the IC50 came to 16.2 nM. The value for `NNc1cc2ncnc(Nc3cccc(Br)c3)c2cn1` was 7.2 nM. The compound `Cc1cccc(Nc2ncnc3cc(NCCCn4ccnc4)ncc23)c1` yielded an IC50 of 3.5 nM. In the case of `CN(C)CCCCCNc1cc2ncnc(Nc3cccc(Br)c3)c2cn1`, the IC50 came to 8.5 nM. Take `O=C(O)CCNc1cc2ncnc(Nc3cccc(Br)c3)c2cn1`: the IC50 worked out at 0.62 nM. The value for `OCC(O)CNc1cc2ncnc(Nc3cccc(Br)c3)c2cn1` (stereo unspecified) was 0.93 nM; that for `O=S(=O)(O)CCNc1cc2ncnc(Nc3cccc(Br)c3)c2cn1` was 1.4 nM.

As for `Nc1cc2ncnc(Nc3ccc(Br)cc3)c2cn1`, the IC50 is 25.7 nM.
